{"source": "patent US6893830B1", "about": "“Method of screening oxysterol activation of LXRα” (The Board of Regents of the University of Texas System, priority 1996, dated 2005)", "key": {"[1]": {"target": "T1, TR-LXR chimera (TRβ N-terminus and DNA binding domain fused to ligand binding domain of LXRα) (Homo sapiens, UniProt Q13133)", "T1 construct": "expressed in transfected cells; host or cells: CV-1 monkey kidney cells", "T1 sequence (Q13133 164-447)": "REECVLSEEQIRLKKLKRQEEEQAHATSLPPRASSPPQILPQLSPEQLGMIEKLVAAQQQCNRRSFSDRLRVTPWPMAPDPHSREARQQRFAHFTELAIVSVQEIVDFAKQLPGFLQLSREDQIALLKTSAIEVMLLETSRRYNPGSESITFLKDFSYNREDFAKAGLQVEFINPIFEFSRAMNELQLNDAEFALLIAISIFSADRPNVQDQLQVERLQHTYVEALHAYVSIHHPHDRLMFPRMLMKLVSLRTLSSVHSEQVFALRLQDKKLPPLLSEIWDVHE", "experiment": "Chimeric receptor transactivation in CV-1 cells, TR-LXR chimera", "type": "cell-based", "conditions": "TK-LXREx3-LUC", "procedure": "Cells were treated with ETOH or 6 μM 22(R)-hydroxycholesterol. […] CV-1 cells were cotransfected with TK-LXREx3-LUC reporter plasmid and expression plasmids containing the indicated receptor combinations, and then treated with the indicated ligands. […] CV-1 cells cotransfected with the LXRα expression plasmid and TK-LXREx3-LUC reporter were treated with 9-cis RA, 22(R)-hydroxycholesterol, or both, at the indicated concentrations."}, "RXR/LXR heterodimer": {"test_system": "RXR/LXR heterodimer", "experiment": "RXR/LXR heterodimer activation, dose response in CV-1 cells with TK-LXREx3-LUC", "type": "cell-based, human", "conditions": "LXRα expression plasmid, dose-dependent", "method": "TK-DR-4-LUC; human vitamin D receptor (VDR)^24, TK-DR^3-LUC; human peroxisome proliferator-activated receptor-α (PPARα)^25, TK-PPREx3-LUC; human farnesol activated receptor (FXR)^11, ΔMTV-EcREx5-LUC; human estrogen receptor (ER)^26, ΔMTV-ERE-LUC; human glucocorticoid receptor (GR)^27, MTV-LUC; Drosophila ecdysone receptor (usp/EcR)^15, ΔMTV-EcREx5-LUC. Cells were treated with ETOH or 6 μM 22(R)-hydroxycholesterol. […] FIG. 3(A)-3(D) Activation of LXRα by 22(R)-hydroxycholesterol in Drosophila (SL-2) cells. […] CV-1 cells were cotransfected with TK-LXREx3-LUC reporter plasmid and expression plasmids containing the indicated receptor combinations, and then treated with the indicated ligands. […] CV-1 cells cotransfected with the LXRα expression plasmid and TK-LXREx3-LUC reporter were treated with 9-cis RA, 22(R)-hydroxycholesterol, or both, at the indicated concentrations.\nIn FIG. 3B. Drosophila SL-2 cells were transfected and assayed as previously described^5 in 6-well plates with […] A5C-hLXRα or A5C-hLXRα, 0.5 mg ADH-LXREx2-LUC, 0.2 mg A5C-βGAL and […] PGEM4 carrier DNA per well.\nA subset of receptors that function as RXR heterodimers have the unique ability to be activated by their own ligand, the RXR ligand (i.e., 9-cis retinoic acid), or both ligands together^11,17. […]"}}, "data": [{"molecule": "CC(C)CC[C@@H](O)[C@@H](C)[C@H]1CC[C@H]2[C@@H]3CC=C4C[C@@H](O)CC[C@]4(C)[C@H]3CC[C@]12C", "note": "[22(R)-hydroxycholesterol]", "values": [{"measurement": "responsiveness of TR-LXR chimera", "setting": "[1]", "value": "responded"}, {"measurement": "maximal induction", "setting": "RXR/LXR heterodimer", "value": 20, "unit": "fold"}]}]}
